Measured values as given in publication PMC3723878 (PLoS ONE, 2013).
Substitutions are numbered along the chain they refer to.

Assays:
Test in all cases: Saturation binding of ^125I-HEAT
human α1A-AR WT = molecular target: T1, human α1A-AR WT (Homo sapiens, UniProt P35348)
T1 construct: expressed in transfected cells; host or cells: COS-7, transient (calcium phosphate)
T1 sequence (P35348 1-466): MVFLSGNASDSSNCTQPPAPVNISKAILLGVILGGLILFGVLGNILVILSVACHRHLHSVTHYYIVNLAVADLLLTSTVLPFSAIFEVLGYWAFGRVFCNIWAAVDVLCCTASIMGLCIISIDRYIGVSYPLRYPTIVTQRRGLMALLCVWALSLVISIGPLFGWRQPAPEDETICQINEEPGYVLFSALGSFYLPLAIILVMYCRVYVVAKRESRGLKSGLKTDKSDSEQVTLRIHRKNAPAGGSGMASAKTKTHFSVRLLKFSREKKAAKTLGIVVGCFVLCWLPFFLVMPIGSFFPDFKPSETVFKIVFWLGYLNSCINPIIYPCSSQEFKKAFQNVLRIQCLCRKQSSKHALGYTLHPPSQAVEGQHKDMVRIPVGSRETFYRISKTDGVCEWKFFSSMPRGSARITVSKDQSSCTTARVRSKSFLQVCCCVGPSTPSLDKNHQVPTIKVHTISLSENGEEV

[1] = molecular target: T2, human α1A-AR F193A variant (Homo sapiens, UniProt P35348, F193A)
T2 construct: expressed in transfected cells; host or cells: COS-7, transient (calcium phosphate)
T2 sequence (P35348 1-466 F193A): T1 sequence (P35348 1-466) with F193A

[2] = molecular target: T3, human α1A-AR S188A/S192A (SS-AA) variant (Homo sapiens, UniProt P35348, S188A/S192A)
T3 construct: expressed in transfected cells; host or cells: COS-7, transient (calcium phosphate)
T3 sequence (P35348 1-466 S188A/S192A): T1 sequence (P35348 1-466) with S188A, S192A

## O=C1c2ccccc2CCC1CNCCc1ccc(O)c([125I])c1 (centres unmarked) [125I-HEAT]
Human α1A-AR WT
  ^125I-HEAT Ratio (affinity relative to WT): 1
Human α1A-AR WT; saturation binding, n = 3–6
  ^125I-HEAT pKd: 10.05±0.14
[1]
  ^125I-HEAT Ratio (loss of affinity relative to WT): 2.8
[2]; SS-AA
  ^125I-HEAT Ratio (loss of affinity relative to WT): 0.78
[2]; SS-AA (5.42–5.46), saturation binding, n = 3–6
  ^125I-HEAT pKd: 10.15±0.01
